Patent US20210029993A1, “SPATIAL INHIBITORS, DETERRENTS AND REPELLENTS FOR MOSQUITOES AND MIDGES” (BEDOUKIAN RESEARCH, INC., priority 2005, published 2021)

Tests used:
[1] = system: female biting midges (Culicoides impunctatus); experiment: Biting midges flying test (Plexiglas module); format: in vivo; conditions: control = 1, higher = more inhibitor activity
Method: The following tests are employed to illustrate the efficacy of the compounds of this disclosure to effectively act as biting midge deterrents, repellents or as spatial inhibitors for biting midges. […] Biting midges are tested in a two-piece Plexiglas module designed to assess their response to feeding deterrents. […] Water (40° C.) flows through the central cavity of the platform at a rate of 215 ml/min. The top piece of the module consists of six 4.5×4.0×5.0 cm chambers, the floors of which are fitted with a sliding door positioned over a circular opening 3.5 cm in diameter. Biting midges are introduced through an aperture 1 cm in diameter on the front wall of the chambers. For each test, five female biting midges (Culicoides impunctatus) are aspirated into each of five chambers of the top module piece and the apertures are plugged with corks wrapped in plastic film. […] To each well, 77.5 μl of green dye (McCormick Food, Hunt Valley, Md.) are added so that those biting midges imbibing the sugar solution can be identified when crushed at the end of the tests. Each membrane receives 50 μl of acetone or experimental compound solution, applied to 9.6 cm^2 circular area on 0.1 mm-thick membranes made of nylon mesh in a silicone matrix. The membranes are then placed over each well in contact with the sugar solution. The circular openings on the floor of each chamber of the top piece of the module are aligned with each membrane-covered well of the bottom piece. The sliding floors of the chambers are then opened allowing biting midges access to the membranes. The number of biting midges landing on the membranes, and those flying within the apparatus, are recorded each minute for five minutes. After five minutes, any biting midges remaining on the membranes are removed with a metal wire, and the door of the floor of each chamber is closed. The top piece of the module is then placed into a freezer for 20 minutes. In the test designed to assess feeding, biting midges are removed from the frozen module, crushed on white paper towels, and examined for the presence of green dye to indicate that feeding had occurred. The proportions of biting midges feeding per trial are analyzed using a standard generalized linear model with a logit link. Landing and flying scores are repeated measures; five readings are obtained for groups of five biting midges. Thus, to maintain independence among the data, the five readings are summed, and then the sums divided by 25 (the maximum score in each category) to create proportions of biting midges landing and flying. The proportions are then transferred using the standard variance stabilizing transformation for proportions (sin^−1 √y, where y is the proportion), and analyzed using ANOVA (Analysis of Variables). In Table 5, weight percent (wt %) refers to the weight of the deterring/repelling/inhibiting compound, or combination of compounds, in the composition used in the tests. […] The weight ratio of the compounds in the combination of compounds is given in parentheses in the “Compound(s)” column of Table 5.

[2] = system: female biting midges (Culicoides impunctatus); experiment: Biting midges feeding test (Plexiglas module, treated membrane); format: in vivo; conditions: control = 1.00, lower = more repellent
Method: The following tests are employed to illustrate the efficacy of the compounds of this disclosure to effectively act as biting midge deterrents, repellents or as spatial inhibitors for biting midges. […] Biting midges are tested in a two-piece Plexiglas module designed to assess their response to feeding deterrents. […] Water (40° C.) flows through the central cavity of the platform at a rate of 215 ml/min. The top piece of the module consists of six 4.5×4.0×5.0 cm chambers, the floors of which are fitted with a sliding door positioned over a circular opening 3.5 cm in diameter. Biting midges are introduced through an aperture 1 cm in diameter on the front wall of the chambers. For each test, five female biting midges (Culicoides impunctatus) are aspirated into each of five chambers of the top module piece and the apertures are plugged with corks wrapped in plastic film. […] To each well, 77.5 μl of green dye (McCormick Food, Hunt Valley, Md.) are added so that those biting midges imbibing the sugar solution can be identified when crushed at the end of the tests. Each membrane receives 50 μl of acetone or experimental compound solution, applied to 9.6 cm^2 circular area on 0.1 mm-thick membranes made of nylon mesh in a silicone matrix. The membranes are then placed over each well in contact with the sugar solution. The circular openings on the floor of each chamber of the top piece of the module are aligned with each membrane-covered well of the bottom piece. The sliding floors of the chambers are then opened allowing biting midges access to the membranes. The number of biting midges landing on the membranes, and those flying within the apparatus, are recorded each minute for five minutes. After five minutes, any biting midges remaining on the membranes are removed with a metal wire, and the door of the floor of each chamber is closed. The top piece of the module is then placed into a freezer for 20 minutes. In the test designed to assess feeding, biting midges are removed from the frozen module, crushed on white paper towels, and examined for the presence of green dye to indicate that feeding had occurred. The proportions of biting midges feeding per trial are analyzed using a standard generalized linear model with a logit link. Landing and flying scores are repeated measures; five readings are obtained for groups of five biting midges. Thus, to maintain independence among the data, the five readings are summed, and then the sums divided by 25 (the maximum score in each category) to create proportions of biting midges landing and flying. The proportions are then transferred using the standard variance stabilizing transformation for proportions (sin^−1 √y, where y is the proportion), and analyzed using ANOVA (Analysis of Variables). In Table 4, weight percent (wt %) refers to the weight of the deterring/repelling/inhibiting compound, or combination of compounds, in the composition used in the tests. […] The weight ratio of the compounds in the combination of compounds is given in parentheses in the “Compound(s)” column of Table 4.

[3] = 87.5 wt % compound(s) in composition
[4] = 77.5 wt % compound(s) in composition
[5] = 80 wt % compound(s) in composition
[6] = 85 wt % compound(s) in composition
[7] = 92.5 wt % compound(s) in composition
[8] = 82.5 wt % compound(s) in composition
[9] = 90 wt % compound(s) in composition
[10] = 95 wt % compound(s) in composition

## CC(C)=CCCC(C)CCO (stereo not drawn) [Citronellol]
[1]; [3]
  Flying Relative To Control: 1.5
[2]; [3]
  Feeding Relative To Control: 0.64

## CC(=O)OC/C=C(/C)CCC=C(C)C [Neryl acetate]
[1]; [4]
  Flying Relative To Control: 2.5
[2]; [4]
  Feeding Relative To Control: 0.72

## C=C[C@@](C)(O)CCC=C(C)C [d-Linalool, reference compound]
[1]; [5]
  Flying Relative To Control: 1.35
[2]; [5]
  Feeding Relative To Control: 0.31

## C=C(C)[C@@H]1CC=C(C)[C@H](O)C1 (relative stereo) [cis-Carveol]
[1]; [6]
  Flying Relative To Control: 1.25
[2]; [6]
  Feeding Relative To Control: 0.67

## CC(C)=CCCC(C)CC=O (stereo not drawn) [Citronellal]
[1]; [7]
  Flying Relative To Control: 1.95
[2]; [7]
  Feeding Relative To Control: 0.64

## Cc1ccc(C(C)(C)O)cc1
[1]; [5]
  Flying Relative To Control: 1.2
[2]; [5]
  Feeding Relative To Control: 0.73

## C=C(C)C1CCC2(C)OC2C1 (single isomer, unassigned; (-)) [(−) Limonene oxide]
[1]; [7]
  Flying Relative To Control: 1.15
[2]; [7]
  Feeding Relative To Control: 0.75

## CC(=O)OC/C=C(\C)CCC=C(C)C [Geranyl acetate]
[1]; [6]
  Flying Relative To Control: 1.5
[2]; [6]
  Feeding Relative To Control: 0.64

## l-Carvone
[1]; [8]
  Flying Relative To Control: 1.65
[2]; [8]
  Feeding Relative To Control: 0.62

## C=C(C)[C@H]1CC=C(C)C(=O)C1 [d-Carvone]
[1]; [4]
  Flying Relative To Control: 1.55
[2]; [4]
  Feeding Relative To Control: 0.65

## CC1=CCC(C(C)(C)O)CC1 (stereo not drawn) [α-terpineol]
[1]; [9]
  Flying Relative To Control: 1.5
[2]; [9]
  Feeding Relative To Control: 0.80

## C=CC(C)(CCC=C(C)C)OC(C)=O (stereo not drawn) [Linaloyl acetate]
[1]; [10]
  Flying Relative To Control: 1.2
[2]; [10]
  Feeding Relative To Control: 0.72

## CC(C)=CCCC(C)=CC=O [Citral]
[1]; [8]
  Flying Relative To Control: 2.15
[2]; [8]
  Feeding Relative To Control: 0.60

## CC1=CCC(O)(C(C)C)CC1 (stereo not drawn) [Terpinen-4-ol]
[1]; [9]
  Flying Relative To Control: 1.6
[2]; [9]
  Feeding Relative To Control: 0.74

## CC(=O)OCCC(C)CCC=C(C)C (stereo not drawn) [Citronellyl acetate]
[1]; [5]
  Flying Relative To Control: 1.25
[2]; [5]
  Feeding Relative To Control: 0.67

## CC(C)[C@@H]1CC[C@@H](C)C(=O)C1 [Tetrahydrocarvone]
[1]; [10]
  Flying Relative To Control: 1.7
[2]; [10]
  Feeding Relative To Control: 0.72

## (+) Limonene oxide
[1]; [3]
  Flying Relative To Control: 0.95
[2]; [3]
  Feeding Relative To Control: 0.77

## C=C(C)[C@@H]1CC=C(C)[C@@H](O)C1 (relative stereo) [trans-Carveol]
[1]; [4]
  Flying Relative To Control: 1.5
[2]; [4]
  Feeding Relative To Control: 0.63
